Legend:
[1] = estimated / in the order of; cited from earlier work
patients' biofilm = assay: Tests performed on patients' biofilm
[2] = type: physicochemical
Source text: The pKa and the Ka values are based on literature references, which include: • E. P. Serjeant and B. Dempsey (eds.), Ionization Constants of Organic Acids in Solution, IUPAC Chemical Data Series No. 23, Pergamon Press, Oxford, UK, 1979; • Part of Journal of Research of the National Bureau of Standards. Volume 31, December 1943, pH VALUES OF ACID.SALT MIXTURES OF SOME AROMATIC SULFONIC ACIDS AT VARIOUS TEMPERATURES AND A CRITERION OF COMPLETENESS OF DISSOCIATION, By Walter j. Hamer. Gladys D. Pinching, and S. F. Acree; • Guthrie, J. P. Hydrolysis of esters of oxy acids: pKa values for strong acids. Can. J. Chem. 1978, 56, 2342-2354;

**Q.** What does the source list for Cc1cccc(S(=O)(=O)O)c1 [3-methylbenzenesulphonic acid]?
**A.** acid dissociation constant, Ka [1]: ~600; antimicrobial activity (patients' biofilm): considerable antimicrobial activity

**Q.** Which results are given for CCc1ccc(S(=O)(=O)O)cc1 [4-Ethylbenzenesulphonic acid]?
**A.** acid dissociation constant, Ka [1]: ~600; antimicrobial activity (patients' biofilm): considerable antimicrobial activity

**Q.** For CCCCCCCCCCCCc1ccc(S(=O)(=O)O)cc1 [4-dodecylbenzenesulphonic acid], which “acid dissociation constant, Ka” value [1] is on record?
**A.** 2-3

**Q.** What about the “acid form remaining undissociated upon contact with the biofilm” value [2] of the same molecule?
**A.** about 57%
